Experimental data reported in patent US5451407A, “Reduction or prevention of skin irritation or sensitization during transdermal administration of a irritating or sensitizing drug” (ALZA Corporation, priority 1993, dated 1995).

Experiments:
[1] = tested on: sensitization and elicitation of sensitization to tetracaine; test: Sensitization and elicitation reactions to tetracaine at 72 hours, Minolta Chroma Meter; format: in vivo, hairless guinea pigs; conditions: for a" value: challenge 1% tetracaine, alone or + 1% methyl nicotinate, Minolta Chroma Meter
Source text: The Minolta® Chroma Meter converts all colors within the range of human perception into a numerical code using the L*, a* and b* notation system. L* expresses brightness on the black-white axis; a* expresses hue on the red-green axis; and b* expresses chroma on the yellow-blue axis so that a specific numerical code enables an exact color description of an object. Minolta® measurements were made by taking the mean a* value of three readings at the treated site.
(§1) After the ninth induction exposure, the animals received no treatment for two weeks. The following formulations were used to determine the effect of methyl nicotinate on the sensitization and elicitation of sensitization to tetracaine during the challenge phase:
(§2) 1) 1 w/v percent tetracaine HCl, 28 w/v percent ethanol, 5 w/v percent HEPPS, 2 w/v percent hydroxypropylcellulose, NaOH q.s. pH 8 and distilled water q.s.,
(§3) 2) 1 w/v percent tetracaine HCl, 1.0 w/v percent methyl nicotinate, 28 w/v percent ethanol, 5 w/v percent HEPPS, 2 w/v percent hydroxypropylcellulose, NaOH q.s. pH 8 and distilled water q.s., and
(§4) 3) 28 w/v percent ethanol, 5 w/v percent HEPPS, 2 w/v percent hydroxypropylcellulose, NaOH q.s. pH 8 and distilled water q.s.
(§5) 0.1 ml of each formulation was placed in a Finn® chamber. The chamber was then applied to the backs of the animals for 6 hours on previously untreated sites.
The test sites of the animals were then scored using a Minolta® Chroma Meter.

[2] = tested on: chloroquine-induced irritation; test: Effect of methyl nicotinate on chloroquine-induced irritation (Finn chamber, Minolta Chroma Meter); format: in vivo, adult human male; conditions: 0.05 w/v methyl nicotinate with chloroquine base 1% w/v, 16 hours application, human forearm; scored 3 hours to 7 days; FIG. 5
Source text: The following formulations were made to determine the effect of methyl nicotinate on chloroquine-induced irritation:
1) chloroquine base 1% w/v, ethanol 24% w/v, HEPPS 5% w/v, hydroxyethylcellulose gel 2% w/v, NaOH q.s. pH 8.5 and distilled water q.s.,
2) chloroquine base 1% w/v, methyl nicotinate 0.05 w/v, ethanol 24% w/v, HEPPS 5% w/v, hydroxyethylcellulose gel 2% w/v, NaOH q.s. pH 8.5 and distilled water q.s.,
3) methyl nicotinate 0.05 w/v, ethanol 24% w/v, HEPPS 5% w/v, hydroxyethyl cellulose gel 2% w/v, NaOH q.s. pH 8.5 and distilled water q.s., and
4) ethanol 24% w/v, HEPPS 5% w/v, hydroxyethylcellulose gel 2% w/v, NaOH q.s. pH 8.5 and distilled water q.s.
0.020 ml of each formulation was placed in a Finn® chamber. The chambers were inverted and applied to four skin sites on the forearm of an adult human. […] At 3 hours, 8 hours, 1 day, 2 days, 3 days, 4 days, 6 days and 7 days thereafter, the sites were observed and the intensity of the irritant reaction was scored with a Minolta® Chroma Meter.
The Minolta® Chroma Meter converts all colors within the range of human perception into a numerical code using the L*, a* and b* notation system. […] Minolta® measurements were made by taking the mean a* value of three readings at the treated site. That result was then subtracted from the mean a* value of three readings at adjacent sites treated with a placebo formulation.

[3] = tested on: elicitation of sensitization to propranolol; test: Effect of methyl nicotinate on the elicitation of sensitization to propranolol (Minolta Chroma Meter); format: in vivo, adult male known to be sensitized to propranolol; conditions: 0.05 w/v percent methyl nicotinate with 0.1 w/v percent propranolol base, two hours application, upper arm; recorded two and three days later; FIG. 6
Source text: The following formulations were made to determine the effect of methyl nicotinate on the elicitation of sensitization to propranolol:
1) 0.1 w/v percent propranolol base, 32 w/v percent ethanol, 5 w/v percent HEPPS, 2 w/v percent hydroxyethylcellulose, NaOH q.s. pH 8 and distilled water q.s., and
2) 0.1 w/v percent propranolol base, 0.05 w/v percent methyl nicotinate, 32 w/v percent ethanol, 5 w/v percent HEPPS, 2 w/v percent hydroxyethylcellulose, NaOH q.s. pH 8 and distilled water q.s.
0.020 ml of each formulation was placed in a Finn® chamber. The chambers were applied to four sites on the upper arm of an adult, who was known to be sensitized to propranolol. After two hours the chambers were removed and the sites washed. The intensity of the reaction was recorded two and three days later using the mean a* measurement recorded by a Minolta® Chroma Meter.

[4] = tested on: cumulative irritation produced by tetracaine HCl; test: Cumulative irritation produced by tetracaine HCl during the induction phase, visual score; format: in vivo, hairless guinea pigs; conditions: 2% tetracaine, alone or + 1% methyl nicotinate, Table 1 scale (total possible score 8)
Source text: The following formulations were made to determine the effect of methyl nicotinate on the cumulative irritation produced by tetracaine HCl during the induction phase:
1) 2 w/v percent tetracaine HCl, 28 w/v percent ethanol, 5 w/v percent HEPPS, 2 w/v percent hydroxypropylcellulose, NaOH q.s. pH 8 and distilled water q.s.,
2) 2 w/v percent tetracaine HCl, 1.0 w/v percent methyl nicotinate, 28 w/v percent ethanol, 5 w/v percent HEPPS, 2 w/v percent hydroxypropylcellulose, NaOH q.s. pH 8 and distilled water q.s., and
as §4
0.1 ml of each formulation was placed in a Finn® chamber, and applied to the back of a hairless guinea pigs (Charles River). After 6 hours the chambers were removed. This was repeated a total of nine times. The inductions were alternated between two sites, such that one site received five applications and the other site received four applications. Two, 24 and 48 hours after removal of the first, fourth, seventh and ninth applications, the treatment sites were scored to assess irritation.

[5] = tested on: sensitization and elicitation of sensitization to tetracaine; test: Sensitization and elicitation of sensitization to tetracaine during the challenge phase, visual score; format: in vivo, hairless guinea pigs; design: scale not given here; conditions: challenge 1% tetracaine, alone or + methyl nicotinate (1.0 w/v percent), Table 1 scale
Source text: as §1, §2, §3, §4, §5

COC(=O)c1cccnc1 [methyl nicotinate]
elicitation reaction to tetracaine (Minolta scores) ([1]; FIG. 9): decreased
sensitization reaction to tetracaine (Minolta scores) ([1]; FIG. 9): decreased
irritant reaction (mean a* value) [2]: reduced the irritant reaction
elicitation of the sensitization reaction (mean a* value) [3]: inhibited the elicitation of the sensitization reaction

CCCCNc1ccc(C(=O)OCCN(C)C)cc1 [tetracaine]
visual irritation score ([4]; application four, 2 h after removal): 2.7
visual irritation score ([4]; application four, 24 h after removal): 2.6
visual irritation score ([4]; application four, 48 h after removal): 1.8
visual irritation score ([4]; application nine, 2 h after removal): 6.7
visual irritation score ([4]; application nine, 24 h after removal): 6.6
visual irritation score ([4]; application nine, 48 h after removal): 6.0
visual irritation score ([4]; application one, 2 h after removal): 1.9
visual irritation score ([4]; application one, 24 h after removal): 1.2
visual irritation score ([4]; application one, 48 h after removal): 1.1
visual irritation score ([4]; application seven, 2 h after removal): 5.8
visual irritation score ([4]; application seven, 24 h after removal): 5.9
visual irritation score ([4]; application seven, 48 h after removal): 5.6
a" value ([1]; induction formulation 2% tetracaine + 1% methyl nicotinate): 10.6
a" value ([1]; induction formulation 2% tetracaine): 12.8
a" value ([1]; induction formulation Control): 8.8
visual score of challenge site ([5]; induction 2% tetracaine + 1% methyl nicotinate, 2 h after removal): 2.8
visual score of challenge site ([5]; induction 2% tetracaine + 1% methyl nicotinate, 24 h after removal): 2.3
visual score of challenge site ([5]; induction 2% tetracaine + 1% methyl nicotinate, 48 h after removal): 2.1
visual score of challenge site ([5]; induction 2% tetracaine + 1% methyl nicotinate, 72 h after removal): 2.0
visual score of challenge site ([5]; induction 2% tetracaine, 2 h after removal): 3.4
visual score of challenge site ([5]; induction 2% tetracaine, 24 h after removal): 2.5
visual score of challenge site ([5]; induction 2% tetracaine, 48 h after removal): 2.2
visual score of challenge site ([5]; induction 2% tetracaine, 72 h after removal): 2.1
visual score of challenge site ([5]; induction Control, 2 h after removal): 1.6
visual score of challenge site ([5]; induction Control, 24 h after removal): 1.0
visual score of challenge site ([5]; induction Control, 48 h after removal): 0.8
visual score of challenge site ([5]; induction Control, 72 h after removal): 0.6
